These are literature values, as cited in patent US20130216646A1, “Nanoparticles of Nutritional and Pharmaceutical Compounds” (priority 2011, published 2013).

SMILES strings stand for the structures. Like-named read-outs stand apart in the source and are kept apart here.

The conditions of data set [1]: dogs.
The conditions of data set [2]: for Sojourn time: another study.
The conditions of data set [3]: in vivo.

Consider `[Ca+2]` [calcium], for which, for the setting “rat intestine, another study”, the “Share of calcium absorption occurring in the duodenum” value is 7%, the “Share of calcium absorption occurring in the ileum” value is reported as 65% and the “Share of calcium absorption occurring in the jejunum” value is given as 17%. Moreover, where the note is “rat small intestine, one study”, the “Share of calcium absorption occurring in the duodenum” value is reported as 8%, the “Share of calcium absorption occurring in the ileum” value is reported as 88% and the “Share of calcium absorption occurring in the jejunum” value is on record as 4%. Moreover, in data set [1], the “Share of calcium absorption occurring in the duodenum” value is recorded as 4%, the “Share of calcium absorption occurring in the ileum” value is on record as 80% and the “Share of calcium absorption occurring in the jejunum” value is listed as 16%. Further, in data set [2] (rat duodenum), the Transit half-time is reported as 6 min and the Sojourn time is given as 2.2 min. Further, in data set [2] (rat ileum), the Transit half-time is reported as 102 min and the Sojourn time is 121.5 min. The “Share of overall calcium absorption accounted for by the small intestine” value in data set [3] is listed as “about 90%”.
